Experimental data from patent US20230087118A1, “IMIDAZO[1,2-a][sequence] DERIVATIVES AND THEIR USE IN THE TREATMENT OF DISEASE” (priority 2019, published 2023).
Where a name gives a salt, the structure may show the parent alone. Read-outs that look alike come from different tables or passages of the source.

Target: T1, IRAK4 (Homo sapiens, UniProt Q9NWZ3)
T1 sequence (Q9NWZ3 1-460): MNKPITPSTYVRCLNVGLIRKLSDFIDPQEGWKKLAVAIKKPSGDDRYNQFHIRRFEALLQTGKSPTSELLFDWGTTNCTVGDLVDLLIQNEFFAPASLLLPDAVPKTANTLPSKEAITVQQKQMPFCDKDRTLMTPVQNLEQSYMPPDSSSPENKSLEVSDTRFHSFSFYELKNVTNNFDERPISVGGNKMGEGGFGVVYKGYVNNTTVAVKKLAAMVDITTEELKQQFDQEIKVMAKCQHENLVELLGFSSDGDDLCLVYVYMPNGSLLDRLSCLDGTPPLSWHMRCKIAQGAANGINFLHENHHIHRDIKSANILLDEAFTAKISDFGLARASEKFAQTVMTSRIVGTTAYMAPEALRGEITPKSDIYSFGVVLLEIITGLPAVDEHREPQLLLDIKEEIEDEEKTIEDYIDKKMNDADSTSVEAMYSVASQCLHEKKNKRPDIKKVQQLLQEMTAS
Assay: biochemical

[1] = IRAK4 Biochemical Assay (1 mM ATP, 2 h) IC50 (μM), 1 mM ATP, 2 h, 100 pM IRAK4

| Compound | IC50 [µM] | IC50 [1] [µM] |
| --- | --- | --- |
| COc1nc(C(=O)Nc2cccc(C(F)F)n2)cn2cc(C34COC(C)(C3)C4)nc12 [Example 231, N-(6-(difluoromethyl)pyridin-2-yl)-8-methoxy-2-(1-methyl-2-oxabicyclo[2.1.1]hexan-4-yl)imidazo[1,2-a]pyrazine-6-carboxamide] | 0.0071 |  |
| O=C(Nc1cccc(C(F)F)n1)c1cn2cc(C3CC3)nc2cc1OC1CC(F)(F)C1 [Example 476, 2-Cyclopropyl-7-(3,3-difluorocyclobutoxy)-N-(6-(difluoromethyl)pyridin-2-yl)imidazo[1,2-a]pyridine-6-carboxamide] |  | 0.0088 |
| CC(C)Oc1cc2nc(C34COC(C)(C3)C4)cn2cc1C(=O)Nc1ccn(C)n1 [Example 297, 7-Isopropoxy-N-(1-methyl-1H-pyrazol-3-yl)-2-(1-methyl-2-oxabicyclo[2.1.1]hexan-4-yl)imidazo[1,2-a]pyridine-6-carboxamide trifluoroacetate] |  | 0.0048 |
| CC12CC(c3cn4cc(C(=O)Nc5ccn(CC(F)F)n5)c(OC5CCC5)cc4n3)(CO1)C2 [Example 530, 7-Cyclobutoxy-N-(1-(2,2-difluoroethyl)-1H-pyrazol-3-yl)-2-(1-methyl-2-oxabicyclo[2.1.1]hexan-4-yl)imidazo[1,2-a]pyridine-6-carboxamide] | 0.0056 |  |
| CCOc1cc2nc(C3CCOCC3)cn2cc1C(=O)Nc1cccc(C(F)CF)n1 (centres unmarked) [Example 392, N-(6-(1,2-difluoroethyl)pyridin-2-yl)-7-ethoxy-2-(tetrahydro-2H-pyran-4-yl)imidazo[1,2-a]pyridine-6-carboxamide hydrochloride] |  | 0.0018 |
| CC(C)Oc1cc2nc(C34COC(C)(C3)C4)cn2cc1C(=O)Nc1cccc2ccnn12 [Example 221] | 0.0006 |  |
| CCn1cccc(NC(=O)c2cn3cc(C4CCOCC4)nc3cc2OC)c1=O [Example 185] | 0.0434 |  |
| COc1cc2nc(C3CCOCC3)cn2cc1C(=O)Nc1ccc(O)nc1OC [Example 188] | 0.326 |  |
| Cc1cnc2c(NC(=O)c3cn4cc([C@]56CO[C@H](CCO5)C6)nc4nc3OC(C)C)cnn2c1 (single isomer, unassigned) [Example 647] | 0.0013 |  |
| CC12CCC(c3cn4cc(C(=O)Nc5cnn6cc(F)cnc56)c(OC5CC5)cc4n3)(CO1)C2 (centres unmarked) [Example 556] | 0.0005 |  |
| CC12CC(c3cn4cc(C(=O)Nc5cccn(C(F)F)c5=O)c(OCC5(F)CCOCC5)cc4n3)(CO1)C2 [Example 456, N-(1-(difluoromethyl)-2-oxo-1,2-dihydropyridin-3-yl)-7-((4-fluorotetrahydro-2H-pyran-4-yl)methoxy)-2-(1-methyl-2-oxabicyclo[2.1.1]hexan-4-yl)imidazo[1,2-a]pyridine-6-carboxamide] |  | 0.0071 |
| CC(C)Oc1cc2nc([C@@]34CC[C@@](C)(C3)OC4)cn2cc1C(=O)Nc1cccn(C)c1=O (single isomer, unassigned) [Example 620] | 0.0006 |  |
| CCOc1nc(C(=O)Nc2cc(F)cn(C)c2=O)cn2cc(C34CCC(C)(C3)OC4)nc12 (centres unmarked) [Example 277, 8-Ethoxy-N-(5-fluoro-1-methyl-2-oxo-1,2-dihydropyridin-3-yl)-2-(1-methyl-2-oxabicyclo[2.2.1]heptan-4-yl)imidazo[1,2-a]pyrazine-6-carboxamide trifluoroacetate] |  | 0.0061 |
| CC1CC(Oc2cc3nc(C45COC(C)(C4)C5)cn3cc2C(=O)Nc2ccn(C)n2)C1 (centres unmarked) [Example 549] | 0.0034 |  |
| COc1ncc(F)cc1NC(=O)c1cn2cc(C34COC(C)(C3)C4)nc2nc1OC(C)C [Example 306, N-(5-fluoro-2-methoxypyridin-3-yl)-7-isopropoxy-2-(1-methyl-2-oxabicyclo[2.1.1]hexan-4-yl)imidazo[1,2-a]pyrimidine-6-carboxamide trifluoroacetate] |  | 0.0031 |
| O=C(Nc1cccn(C(F)F)c1=O)c1cn2cc(C3CC3)nc2cc1OC1CC(C(F)F)C1 (centres unmarked) [Example 461, 2-Cyclopropyl-N-(1-(difluoromethyl)-2-oxo-1,2-dihydropyridin-3-yl)-7-(3-(difluoromethyl)cyclobutoxy)imidazo[1,2-a]pyridine-6-carboxamide] |  | 0.0072 |
| CC(C)Oc1nc2nc(C34COC(C)(C3)C4)cn2cc1C(=O)Nc1cccc(-c2cnn(C)c2)n1 [Example 413, 7-Isopropoxy-N-(6-(1-methyl-1H-pyrazol-4-yl)pyridin-2-yl)-2-(1-methyl-2-oxabicyclo[2.1.1]hexan-4-yl)imidazo[1,2-a]pyrimidine-6-carboxamide] | 0.0001 |  |
| COc1cc2nc(C3CCOCC3)cn2cc1C(=O)Nc1cccn(C(C)C)c1=O [Example 192] | 0.0429 |  |

| Compound | IC50 [µM] | IC50 [1] [µM] |
| --- | --- | --- |
| CCOc1cc2nc(C(F)F)cn2cc1C(=O)Nc1cccc(C(F)F)n1 [Example 95, 2-(Difluoromethyl)-N-(6-(difluoromethyl)pyridin-2-yl)-7-ethoxyimidazo[1,2-a]pyridine-6-carboxamide] | 0.0005 |  |
| CC(C)Oc1nc(C(=O)Nc2cccn(C)c2=O)cn2cc(C34CCC(C)(CC3)OC4)nc12 [Example 427, 8-Isopropoxy-N-(1-methyl-2-oxo-1,2-dihydropyridin-3-yl)-2-(1-methyl-2-oxabicyclo[2.2.2]octan-4-yl)imidazo[1,2-a]pyrazine-6-carboxamide] | 0.0007 |  |
| CC(C)Oc1cc2nc(C34COC(C3)C4)cn2cc1C(=O)Nc1cccn(C(F)F)c1=O [Example 547, 2-(2-Oxabicyclo[2.1.1]hexan-4-yl)-N-(1-(difluoromethyl)-2-oxo-1,2-dihydropyridin-3-yl)-7-isopropoxyimidazo[1,2-a]pyridine-6-carboxamide] | 0.0008 |  |
| COc1cccc(NC(=O)c2cn3cc(C4CCOCC4)nc3cc2OCCC2CCOC2)n1 (centres unmarked) [Example 435, N-(6-methoxypyridin-2-yl)-2-(tetrahydro-2H-pyran-4-yl)-7-(2-(tetrahydrofuran-3-yl)ethoxy)imidazo[1,2-a]pyridine-6-carboxamide] | 0.0051 |  |
| CCc1cccc(NC(=O)c2cn3cc(C4CCOCC4)nc3cc2OC)n1 [Example 59] |  | 0.0137 |
| CC(C)Oc1nc2nc(C34CC(C)(C3)OC4(C)C)cn2cc1C(=O)Nc1cnn2cc(F)cnc12 [Example 310, N-(6-fluoropyrazolo[1,5-a]pyrimidin-3-yl)-7-isopropoxy-2-(1,3,3-trimethyl-2-oxabicyclo[2.1.1]hexan-4-yl)imidazo[1,2-a]pyrimidine-6-carboxamide] | 0.001 |  |
| C[C@@]12CC[C@@](c3cn4cc(C(=O)Nc5cccc(C(F)F)n5)nc(OC5CCC5)c4n3)(CO1)C2 (single isomer, unassigned) [Example 626] | 0.0006 |  |
| Cc1cnc2c(NC(=O)c3cn4cc(C56CCC(C)(CC5)CO6)nc4nc3OC(C)C)cnn2c1 [Example 567, 7-Isopropoxy-2-(4-methyl-2-oxabicyclo[2.2.2]octan-1-yl)-N-(6-methylpyrazolo[1,5-a]pyrimidin-3-yl)imidazo[1,2-a]pyrimidine-6-carboxamide] | 0.0002 |  |
| CC12CC(c3cn4cc(C(=O)Nc5ccn(CC#N)n5)c(OC5CCC5)cc4n3)(CO1)C2 [Example 527, N-(1-(cyanomethyl)-1H-pyrazol-3-yl)-7-cyclobutoxy-2-(1-methyl-2-oxabicyclo[2.1.1]hexan-4-yl)imidazo[1,2-a]pyridine-6-carboxamide] | 0.0044 |  |
| CCC(C)Oc1nc2nc(C34COC(CF)(C3)C4)cn2cc1C(=O)Nc1cnn2cc(C)cnc12 (single isomer, unassigned) [Example 644] | 0.0012 |  |
| CC(C)Oc1cc2nc(Cl)cn2cc1C(=O)Nc1cccc(C(F)F)n1 [Example 265, 2-Chloro-N-(6-(difluoromethyl)pyridin-2-yl)-7-isopropoxyimidazo[1,2-a]pyridine-6-carboxamide] | 0.0067 |  |
| COc1nc(C(=O)Nc2cccc3c2OCCC3)cn2cc(C3CCOCC3)nc12 [Example 205, N-chroman-8-yl-8-methoxy-2-tetrahydropyran-4-yl-imidazo[1,2-a]pyrazine-6-carboxamide trifluoroacetate] |  | 0.0341 |
| CC12CC(c3cn4cc(C(=O)Nc5ccn(C6CCC6)n5)c(OC5CCC5)cc4n3)(CO1)C2 [Example 524, 7-Cyclobutoxy-N-(1-cyclobutyl-1H-pyrazol-3-yl)-2-(1-methyl-2-oxabicyclo[2.1.1]hexan-4-yl)imidazo[1,2-a]pyridine-6-carboxamide] | 0.0111 |  |
| COc1cccc(NC(=O)c2cn3cc(C45COC(C)(C4)C5)nc3cc2OC2CCC2)n1 [Example 529, 7-Cyclobutoxy-N-(6-methoxypyridin-2-yl)-2-(1-methyl-2-oxabicyclo[2.1.1]hexan-4-yl)imidazo[1,2-a]pyridine-6-carboxamide] | 0.0003 |  |
| CC12CC(c3cn4cc(C(=O)Nc5cccn(C(F)F)c5=O)c(OC5CCOCC5)cc4n3)(CO1)C2 [Example 454, N-(1-(difluoromethyl)-2-oxo-1,2-dihydropyridin-3-yl)-2-(1-methyl-2-oxabicyclo[2.1.1]hexan-4-yl)-7-((tetrahydro-2H-pyran-4-yl)oxy)imidazo[1,2-a]pyridine-6-carboxamide] | 0.0024 |  |
| CC(C)Oc1nc2nc(C34COC(C)(C3)C4)cn2cc1C(=O)Nc1cnn2cccnc12 [Example 307, 7-Isopropoxy-2-(1-methyl-2-oxabicyclo[2.1.1]hexan-4-yl)-N-(pyrazolo[1,5-a]pyrimidin-3-yl)imidazo[1,2-a]pyrimidine-6-carboxamide] |  | 0.0005 |
| COc1ncccc1NC(=O)c1cn2cc(C34COC(C)(C3)C4)nc2c(C)c1OC [Example 291, 7-Methoxy-N-(2-methoxypyridin-3-yl)-8-methyl-2-(1-methyl-2-oxabicyclo[2.1.1]hexan-4-yl)imidazo[1,2-a]pyridine-6-carboxamide] | 0.0125 |  |
